Measured values: ChEMBL document CHEMBL1201862, “PubChem BioAssay data set” (2004)
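Each compound was tested at five concentrations against cells in 96-well plates for 48 hours. GI50 marks 50% less growth.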 Activity calls are given as the source filed them. Cut-off read from the data, not from the text of the source: active = GI50 up to about 1.1 µM and inactive = higher. *1 amine or outer side, *2 acyl side, *3 side chain or, on linkers, in order; H or OH if unused. Where a SMILES comes first, the peptide text is derived from it. Bridges are numbered along the chain shown (N, C = ends). Roman numbers before positions name the chains, in order. [ ]: non-standard residue; d: D form. Actinocin(9to1) = Cc1c2oc3c(C)ccc(C(=O)[*:1])c3nc-2c(C(=O)[*:2])c(N)c1=O; NMeV = CN[CH](C(=O)O)C(C)C; Sar = CNCC(=O)O

What was measured:
Assay in all cases: NCI anticancer screen, dose series, 48 h
SN12C = tested on: SN12C
NCI-H460 = tested on: NCI-H460
HT-29 = tested on: HT-29
LOX IMVI = tested on: LOX IMVI
SF-295 = tested on: SF-295
HCT-15 = tested on: HCT-15
A549 = tested on: A549
UO-31 = tested on: UO-31
786-0 = tested on: 786-0
IGROV-1 = tested on: IGROV-1
SNB-78 = tested on: SNB-78
M14 = tested on: M14
UACC-62 = tested on: UACC-62
NCI-H522 = tested on: NCI-H522
SK-MEL-2 = tested on: SK-MEL-2
MCF7 = tested on: MCF7
T47D = tested on: T47D
SK-MEL-28 = tested on: SK-MEL-28
NCI/ADR-RES = tested on: NCI/ADR-RES
OVCAR-5 = tested on: OVCAR-5

| Structure (SMILES) | GI50 (SN12C) | GI50 (NCI-H460) | GI50 (HT-29) | GI50 (LOX IMVI) | GI50 (SF-295) | GI50 (HCT-15) [µM] | GI50 (A549) | GI50 (UO-31) | GI50 (786-0) | GI50 (IGROV-1) | GI50 (SNB-78) | GI50 (M14) | GI50 (UACC-62) | GI50 (NCI-H522) | GI50 (SK-MEL-2) | GI50 (MCF7) | GI50 (T47D) | GI50 (SK-MEL-28) | GI50 (NCI/ADR-RES) | GI50 (OVCAR-5) |
| --- | --- | --- | --- | --- | --- | --- | --- | --- | --- | --- | --- | --- | --- | --- | --- | --- | --- | --- | --- | --- |
| Cc1ccc(S(=O)(=O)C(CC(NC=O)S(=O)(=O)c2ccc(C)cc2)NC=O)cc1 (stereo unspecified) | > 100 µM (inactive) | > 100 µM (inactive) | > 100 µM (inactive) | > 100 µM (inactive) | > 100 µM (inactive) | > 100 | > 100 µM (inactive) | > 100 µM (inactive) | > 100 µM (inactive) | > 100 µM (inactive) | > 100 µM (inactive) | > 100 µM (inactive) | > 100 µM (inactive) | > 100 µM (inactive) | – | – | – | – | – | – |
| O=c1[nH]nc(Cc2ccc(Cl)cc2)n1/N=C/c1ccc([N+](=O)[O-])o1 | 3.78 µM (inactive) | 3.4 µM (inactive) | 2.21 µM (inactive) | 1.2 µM (inactive) | 2.77 µM (inactive) | 2.21 | 3.42 µM (inactive) | 2.16 µM (inactive) | 2.23 µM (inactive) | 2.05 µM (inactive) | – | 2.17 µM (inactive) | 2.87 µM (inactive) | 1 µM (active) | 3.38 µM (inactive) | 1.75 µM (inactive) | 21.4 µM (inactive) | 3.03 µM (inactive) | 3.16 µM (inactive) | 6.85 µM (inactive) |
| CC(=O)n1cc(C2CC23N=C(c2ccccc2)OC3=O)c2ccccc21 (stereo unspecified) | 14.7 µM (inactive) | 22.4 µM (inactive) | 17.9 µM (inactive) | 16 µM (inactive) | 36.7 µM (inactive) | 20.3 | 21.7 µM (inactive) | 15.5 µM (inactive) | 14.8 µM (inactive) | 16.8 µM (inactive) | – | 16.2 µM (inactive) | 16.9 µM (inactive) | 15.3 µM (inactive) | 21.5 µM (inactive) | 19.1 µM (inactive) | 34.9 µM (inactive) | 19.7 µM (inactive) | 18.2 µM (inactive) | 22 µM (inactive) |
| COc1cc(/C=C2\CCC/C(=C\c3cc(OC)c(O)c(OC)c3)C2=O)cc(OC)c1O | 2.32 µM (inactive) | 2.22 µM (inactive) | 12.9 µM (inactive) | 1.91 µM (inactive) | 2.03 µM (inactive) | 1.52 | 1.67 µM (inactive) | 1.69 µM (inactive) | 1.7 µM (inactive) | 1.22 µM (inactive) | – | 1.88 µM (inactive) | 1.38 µM (inactive) | 1.53 µM (inactive) | 2.4 µM (inactive) | 3.12 µM (inactive) | 2.79 µM (inactive) | 2.69 µM (inactive) | 2.19 µM (inactive) | 2.05 µM (inactive) |
| CC(Cc1ccc(O)cc1)NCC(O)c1ccc(O)c(O)c1 (stereo unspecified) | > 100 µM (inactive) | > 100 µM (inactive) | > 100 µM (inactive) | > 100 µM (inactive) | > 100 µM (inactive) | > 100 | > 100 µM (inactive) | > 100 µM (inactive) | > 100 µM (inactive) | > 100 µM (inactive) | – | > 100 µM (inactive) | > 100 µM (inactive) | > 100 µM (inactive) | > 100 µM (inactive) | > 100 µM (inactive) | > 100 µM (inactive) | > 100 µM (inactive) | > 100 µM (inactive) | > 100 µM (inactive) |
| CCOC(=O)CCC(NC(=O)OCc1ccccc1)C(=O)NC(CCC(=O)OCC)C(=O)NC(CCC(=O)OCC)C(=O)NC(CCC(=O)OCC)C(=O)NC(CCC(=O)OCC)C(=O)OCC (stereo unspecified) | > 100 µM (inactive) | > 100 µM (inactive) | > 100 µM (inactive) | > 100 µM (inactive) | > 100 µM (inactive) | > 100 | > 100 µM (inactive) | > 100 µM (inactive) | > 100 µM (inactive) | > 100 µM (inactive) | – | > 100 µM (inactive) | > 100 µM (inactive) | > 100 µM (inactive) | > 100 µM (inactive) | > 100 µM (inactive) | > 100 µM (inactive) | > 100 µM (inactive) | > 100 µM (inactive) | > 100 µM (inactive) |
| O=C1c2cccc3cc4ccccc4c(c23)C(=O)N1CCCNCCNCCCN1C(=O)c2cccc3cc4ccccc4c(c23)C1=O | < 0.01 µM (active) | < 0.01 µM (active) | 0.0104 µM (active) | < 0.01 µM (active) | 0.0182 µM (active) | 0.103 | 0.0133 µM (active) | 0.33 µM (active) | 0.02 µM (active) | 0.0139 µM (active) | – | 0.177 µM (active) | 0.0575 µM (active) | < 0.01 µM (active) | 0.338 µM (active) | 0.0191 µM (active) | 0.421 µM (active) | 0.239 µM (active) | 0.314 µM (active) | 0.257 µM (active) |
| O=C1c2ccccc2-c2c1c1ccccc1c(=O)n2-c1cccnc1 | > 52.2 µM (inactive) | 6.24 µM (inactive) | > 63.7 µM (inactive) | 32.1 µM (inactive) | 27 µM (inactive) | 24.9 | 11.5 µM (inactive) | > 48.8 µM (inactive) | 9.91 µM (inactive) | 34.2 µM (inactive) | – | > 100 µM (inactive) | 32 µM (inactive) | 10.5 µM (inactive) | > 100 µM (inactive) | 22.5 µM (inactive) | > 64.4 µM (inactive) | > 100 µM (inactive) | 45.8 µM (inactive) | > 100 µM (inactive) |
| C=C(C)[C@@H]1CC[C@]2(C)CC[C@]3(C)[C@H](CC[C@@H]4[C@@]5(C)CC[C@H](O)C(C)(C)[C@@H]5CC[C@]43C)[C@@H]12 [LUPEOL] | 36.5 µM (inactive) | 45.7 µM (inactive) | > 78.2 µM (inactive) | 19.5 µM (inactive) | > 50.8 µM (inactive) | > 70.1 | > 62.7 µM (inactive) | > 47.8 µM (inactive) | 37.2 µM (inactive) | > 54.7 µM (inactive) | – | > 94.6 µM (inactive) | > 100 µM (inactive) | 23.8 µM (inactive) | > 100 µM (inactive) | 21.7 µM (inactive) | > 100 µM (inactive) | > 65.2 µM (inactive) | 26.7 µM (inactive) | > 100 µM (inactive) |
| N#CC1(C#N)C(C#N)(C#N)C1(C#N)C(N)=O | > 100 µM (inactive) | > 100 µM (inactive) | > 100 µM (inactive) | > 100 µM (inactive) | > 100 µM (inactive) | > 100 | > 100 µM (inactive) | > 100 µM (inactive) | > 100 µM (inactive) | > 100 µM (inactive) | – | > 100 µM (inactive) | > 100 µM (inactive) | > 100 µM (inactive) | > 100 µM (inactive) | > 100 µM (inactive) | > 100 µM (inactive) | > 100 µM (inactive) | > 100 µM (inactive) | > 100 µM (inactive) |
| Cc1ccc(OCCn2cc(Nc3ccccc3)c(=O)n(CCOc3ccc(C)cc3)c2=O)cc1 | > 100 µM (inactive) | > 100 µM (inactive) | 51.1 µM (inactive) | > 100 µM (inactive) | 50.2 µM (inactive) | > 100 | 28.8 µM (inactive) | > 100 µM (inactive) | 48 µM (inactive) | 50.8 µM (inactive) | – | > 100 µM (inactive) | > 100 µM (inactive) | 97.7 µM (inactive) | > 100 µM (inactive) | > 100 µM (inactive) | > 100 µM (inactive) | > 100 µM (inactive) | > 100 µM (inactive) | > 100 µM (inactive) |
| C[C@@H]1CC[C@@]2(C)C(C(=O)O)=CCCC2[C@@]1(C)CC(=O)c1ccoc1 (stereo partly specified) | > 25 µM (inactive) | > 25 µM (inactive) | > 25 µM (inactive) | > 25 µM (inactive) | > 25 µM (inactive) | > 25 | > 25 µM (inactive) | > 25 µM (inactive) | > 25 µM (inactive) | > 25 µM (inactive) | – | > 25 µM (inactive) | > 25 µM (inactive) | > 25 µM (inactive) | > 25 µM (inactive) | > 25 µM (inactive) | > 25 µM (inactive) | > 25 µM (inactive) | > 25 µM (inactive) | > 25 µM (inactive) |
| CN(C)CCCNc1c(C#N)[n+]([O-])c2cc(Cl)ccc2[n+]1[O-] | 17.9 µM (inactive) | 2.62 µM (inactive) | 5.58 µM (inactive) | 10.2 µM (inactive) | 10.6 µM (inactive) | 3.75 | 7.67 µM (inactive) | 13.4 µM (inactive) | 9.95 µM (inactive) | 1.71 µM (inactive) | – | 8.13 µM (inactive) | 5.48 µM (inactive) | 3.1 µM (inactive) | 9.62 µM (inactive) | 9.38 µM (inactive) | 11.4 µM (inactive) | 65.5 µM (inactive) | 13.2 µM (inactive) | > 61.7 µM (inactive) |
| Cc1c2oc3c(C)ccc(C(=O)NC4C(=O)NC(C(C)C)C(=O)N5CCCC5C(=O)N(C)CC(=O)N(C)C(C(C)C)C(=O)OC4C)c3nc-2c(C(=O)NC2C(=O)NC(C(C)C)C(=O)N3CCCC3C(=O)N(C)CC(=O)N(C)C(C(C)C)C(=O)OC2C)c(N)c1=O (stereo unspecified) (I: TVP[Sar][NMeV] / II: TVP[Sar][NMeV]; ester I:1-I:C, II:1-II:C; linker I:N-II:N via Actinocin(9to1); configuration not given here) | 0.00011 µM (active) | < 0.0001 µM (active) | < 0.0001 µM (active) | < 0.0001 µM (active) | 0.000522 µM (active) | 0.0123 | 0.000199 µM (active) | 0.0152 µM (active) | 0.000143 µM (active) | 0.00011 µM (active) | – | 0.00256 µM (active) | < 0.0001 µM (active) | < 0.0001 µM (active) | < 0.0001 µM (active) | < 0.0001 µM (active) | 0.000507 µM (active) | 0.000764 µM (active) | 0.0499 µM (active) | 0.00181 µM (active) |
